Reference: the NIST ThermoML archive (doi:10.1016/j.tca.2011.02.016)
Numbers after ± are expanded uncertainties.

What was measured:
[1] = 298.15 K; 101.33 kPa; Liquid; Pycnometric method
[2] = molar heat capacity at constant pressure; settings: 298.15 K; 101.33 kPa; Liquid; Small sample (50 mg) DSC

Cn1cc[n+](CCO)c1.N#C[N-]C#N [3-(2-hydroxyethyl)-1-methyl-1H-imidazol-3-ium dicyanoazanide]
mass density [1]: 1120 ± 10 kg/m3
molar heat capacity at constant pressure [2]: 231.85 ± 3.9 J/K/mol
